Our source for the Activity values is ChEMBL document CHEMBL3286345, “Synthesis and biological activity of new arenediyne-linked isoxazolidines” (2014).

For experiment [1], the system named is HepG2. Kind of experiment: Cytotoxicity against human HepG2 cells assessed as cell death at 1 to 100 uM after 24 to 72 hrs by trypan blue dye exclusion assay. It is filed as functional, cell-based.
Experiment [2] deals with SH-SY5Y. In words: Cytotoxicity against human SH-SY5Y cells at 50 to 100 uM after 24 to 72 hrs by LDH release assay. It is filed as functional, cell-based.
Experiment [3] has as its system HT-29. Kind of experiment: Antiproliferative activity against human HT-29 cells at 50 uM after 48 to 72 hrs by MTT assay. It is filed as functional, cell-based.
The subject of experiment [4] is HT-29. In words: Cytotoxicity against human HT-29 cells at 50 to 100 uM after 24 to 72 hrs by LDH release assay. It is filed as functional, cell-based.
In experiment [5] the test system is HepG2. Kind of experiment: Antiproliferative activity against human HepG2 cells after 24 to 72 hrs by MTT assay. It is filed as functional, cell-based.
The test system of experiment [6] is SH-SY5Y. Kind of experiment: Antiproliferative activity against human SH-SY5Y cells at 1 to 100 uM after 24 to 72 hrs by cell counting assay. It is filed as functional, cell-based.
In experiment [7] the test system is HepG2. Kind of experiment: Antiproliferative activity against human HepG2 cells at 1 to 100 uM by MTT assay. It is filed as functional, cell-based. To be noted: TDE = time-dependent effect.
The subject of experiment [8] is HT-29. Kind of experiment: Cytotoxicity against human HT-29 cells assessed as cell death at 1 to 100 uM after 24 to 72 hrs by trypan blue dye exclusion assay. It is filed as functional, cell-based.
The test system of experiment [9] is HT-29. In words: Antiproliferative activity against human HT-29 cells at 100 uM after 72 hrs by MTT assay. It is filed as functional.
Experiment [10] deals with SH-SY5Y. Kind of experiment: Cytotoxicity against human SH-SY5Y cells assessed as cell death at 1 to 100 uM after 24 to 72 hrs by trypan blue dye exclusion assay. It is filed as functional, cell-based.
The test system of experiment [11] is HT-29. In words: Antiproliferative activity against human HT-29 cells at 1 to 100 uM by MTT assay. It is filed as functional, cell-based. To be noted: TDE = time-dependent effect.
The test system of experiment [12] is SH-SY5Y. In words: Antiproliferative activity against human SH-SY5Y cells after 24 to 72 hrs by MTT assay. It is filed as functional, cell-based.
For experiment [13], the system named is HepG2. In words: Antiproliferative activity against human HepG2 cells at 1 to 100 uM after 24 to 72 hrs by cell counting assay. It is filed as functional, cell-based.
Experiment [14] deals with HepG2. In words: Cytotoxicity against human HepG2 cells at 50 to 100 uM after 24 to 72 hrs by LDH release assay. It is filed as functional, cell-based.
Experiment [15] relates to HT-29. Kind of experiment: Antiproliferative activity against human HT-29 cells after 24 to 72 hrs by MTT assay. It is filed as functional, cell-based.
For experiment [16], the system named is HT-29. In words: Antiproliferative activity against human HT-29 cells at 100 uM after 48 hrs by MTT assay. It is filed as functional, cell-based.
For experiment [17], the system named is HT-29. In words: Antiproliferative activity against human HT-29 cells at 1 to 100 uM after 24 to 72 hrs by cell counting assay. It is filed as functional, cell-based.
Experiment [18] relates to SH-SY5Y. Kind of experiment: Antiproliferative activity against human SH-SY5Y cells at 1 to 100 uM by MTT assay. To be noted: TDE = time-dependent effect. It is filed as functional, cell-based.
Experiment [19] has as its system HepG2. In words: Antiproliferative activity against human HepG2 cells at 1 to 100 uM after 24 to 72 hrs by MTT assay. It is filed as functional, cell-based.
Experiment [20] relates to HT-29. Kind of experiment: Antiproliferative activity against human HT-29 cells at 1 to 100 uM after 24 to 72 hrs by MTT assay. It is filed as functional, cell-based.
Experiment [21] has as its system HepG2. Kind of experiment: Cytotoxicity against human HepG2 cells at 1 to 100 uM after 24 to 72 hrs by LDH release assay. It is filed as functional, cell-based.
For experiment [22], the system named is SH-SY5Y. Kind of experiment: Cytotoxicity against human SH-SY5Y cells at 1 to 100 uM after 24 to 72 hrs by LDH release assay. It is filed as functional, cell-based.
The subject of experiment [23] is HT-29. Kind of experiment: Cytotoxicity against human HT-29 cells at 1 to 100 uM after 24 to 72 hrs by LDH release assay. It is filed as functional, cell-based.
Experiment [24] relates to SH-SY5Y. In words: Antiproliferative activity against human SH-SY5Y cells at 1 to 100 uM after 24 to 72 hrs by MTT assay. It is filed as functional, cell-based.
Experiment [25] has as its system SH-SY5Y. In words: Antiproliferative activity against human SH-SY5Y cells at 100 uM after 72 hrs by MTT assay. It is filed as functional, cell-based.
Experiment [26] has as its system HepG2. Kind of experiment: Antiproliferative activity against human HepG2 cells at 100 uM after 72 hrs by MTT assay. It is filed as functional, cell-based.
For experiment [27], the system named is HT-29. Kind of experiment: Antiproliferative activity against human HT-29 cells at 50 to 100 uM after 48 to 72 hrs by MTT assay. It is filed as functional, cell-based.

SMILES strings stand for the structures. Calls of active or inactive are those of the source. The calls are words filed in the database; no cut-off is given here.

For `CN1O[C@@H]2COCC#Cc3ccccc3C#CCOC[C@@H]2[C@@H]1CO[Si](c1ccccc1)(c1ccccc1)C(C)(C)C` (racemic), the result with HepG2 [1], in the experiment with SH-SY5Y [2], in the experiment on HT-29 [3], in the experiment with HT-29 [4], in the experiment with SH-SY5Y [6] and in the experiment on HT-29 [8] was Active. Also, the outcome in the experiment on SH-SY5Y [10], with HepG2 [13], with HepG2 [14], in the experiment with HT-29 [16] and in the experiment on HT-29 [17] was Active. Moreover, the Activity result with HepG2 [5] is “Dose-dependent effect”; in the experiment with HepG2 [7], “tde”; in the experiment on HT-29 [9], 63%; in the experiment on HT-29 [11], “tde”; in the experiment on SH-SY5Y [12], “Dose-dependent effect”; in the experiment with HT-29 [15] it was “Dose-dependent effect”. The Activity result with SH-SY5Y [18] was “tde”.
Turning to `CN1O[C@@H](OCC#Cc2ccccc2C#CCO)C[C@@H]1CO[Si](c1ccccc1)(c1ccccc1)C(C)(C)C` (racemic), the result in the experiment with HepG2 [19], with HT-29 [20], with SH-SY5Y [6], in the experiment with HepG2 [21], in the experiment on SH-SY5Y [22] and in the experiment with HT-29 [23] was inactive. Also, the outcome with SH-SY5Y [24], in the experiment on HepG2 [13] and with HT-29 [17] was inactive.
In the case of `CN1O[C@H](OCC#Cc2ccccc2C#CCO)C[C@@H]1CO` (racemic), the outcome in the experiment on HepG2 [1], in the experiment with SH-SY5Y [2], in the experiment on SH-SY5Y [25], in the experiment on HT-29 [4], in the experiment with SH-SY5Y [6] and in the experiment on HT-29 [8] was Active. Moreover, the result in the experiment with SH-SY5Y [10], with HepG2 [13], with HepG2 [14], with HepG2 [26], in the experiment on HT-29 [17] and in the experiment with HT-29 [27] was Active. Besides, the Activity entry is “Dose-dependent effect” in the experiment with HepG2 [5]; “tde” in the experiment with HepG2 [7]; “tde” in the experiment on HT-29 [11]; “Dose-dependent effect” with SH-SY5Y [12]; “Dose-dependent effect” in the experiment on HT-29 [15]; “tde” with SH-SY5Y [18].
Consider `CN1O[C@H](OCC#Cc2ccccc2C#CCO)C[C@@H]1CO[Si](c1ccccc1)(c1ccccc1)C(C)(C)C` (racemic), for which the result in the experiment on HepG2 [19], in the experiment with HT-29 [20], with SH-SY5Y [6], with HepG2 [21], with SH-SY5Y [22] and with HT-29 [23] was inactive. Besides, the outcome with SH-SY5Y [24], in the experiment on HepG2 [13] and in the experiment with HT-29 [17] was inactive.
